Source: publication PMC7778606, “Development of the phenylpyrazolo[3,4-d]pyrimidine-based, insulin-like growth factor receptor/Src/AXL-targeting small molecule kinase inhibitor” (Theranostics, 2021)
Read-outs that look alike come from different tables or passages of the source.

What was measured:
[1] = system: Wi38, RPE, and HT-22 cells; test: MTT assay, viability of normal cells; assay type: cell-based, human, mouse
Method: (§1) Cells were seeded into 96-well plates at a density of 1-2 × 10^3 cells/well and incubated for 24 h. Cells were treated with vehicle or various concentrations of test compounds for two (PC9 and PC9/ER cells) or three (other cells) days. Cells were further incubated with MTT solution (final concentration of 500 μg/mL) for 4 h at 37 °C. The formazan products were dissolved in dimethyl sulfoxide (DMSO), and the absorbance was measured at 570 nm. The data are presented as a percentage of the control group.

[2] = Glucose tolerance test; assay type: in vivo; settings: LL6-administered mice vs vehicle-treated mice
Method: Glucose tolerance tests were performed as described in the previously published literature.

[3] = system: H460 cells; test: MTT assay, viability of H460 cells; assay type: cell-based; settings: Homo sapiens, NCI-H460, 72 h, three days, read-out: IC50 against the viability
Method: as §1

[4] = system: H460/PmR cells; test: MTT assay, viability of pemetrexed-resistant H460/PmR cells; assay type: cell-based; settings: Homo sapiens, NCI-H460, 72 h, three days, read-out: IC50 against the viability
Source text: (§2) Human lung cancer cell lines (A549, H1299, H1993, H1944, H226B, H226Br, H460, H522, HCC15, and PC9), a diploid human lung fibroblast cell line (Wi38), and the Lewis lung carcinoma (LLC) cell line were purchased from the American Type Culture Collection (ATCC, Manassas, VA, USA) or kindly provided by Dr. John V. Heymach (MD Anderson Cancer Center, Houston, TX, USA). Human retinal pigment epithelial (RPE) cells were kindly provided by Dr. Jeong Hun Kim (College of Medicine, Seoul National University, Seoul, Republic of Korea). HT-22 cells were provided by Dr. Dong Gyu Jo (College of Pharmacy, Sungkyunkwan University, Suwon, Republic of Korea). Lung cancer cells were cultured in RPMI 1640 medium supplemented with 10% fetal bovine serum (FBS) and antibiotics (Welgene, Gyeongsan-si, Republic of Korea). LLC, HT-22, and Wi38 cells were maintained in DMEM supplemented with 10% FBS and antibiotics. RPE cells were maintained in DMEM/F12 supplemented with 10% FBS and antibiotics. […]
(§3) Cells were seeded into 96-well plates at a density of 1-2 × 10^3 cells/well and incubated for 24 h. […] The formazan products were dissolved in dimethyl sulfoxide (DMSO), and the absorbance was measured at 570 nm. […]

[5] = system: Src; test: Western blot, phosphorylation of Src in H1944 and A549 cells; assay type: cell-based, human; settings: 2.5 μM
Method: Before harvesting, the cells were stimulated with 10% FBS for 20 min. […] Equal amounts of protein (20 μg) were subjected to 8% SDS-PAGE and electrically transferred onto polyvinylidene difluoride membranes (Bio-Rad Laboratories, Hercules, CA, USA). Membranes were blocked with blocking buffer (3% BSA in Tris-buffered saline containing 0.1% Tween-20 [TBST]) for 1 h at room temperature. The membranes were incubated with primary antibodies diluted in 3% BSA in TBST (1:1,000) overnight at 4 °C, washed multiple times with TBST, and incubated with secondary antibodies diluted in 3% nonfat dry milk in TBST (1:5,000) for 1 h at room temperature. The membranes were washed multiple times with TBST and visualized using an enhanced chemiluminescence detection kit (Thermo Fisher Scientific). Densitometric analysis was performed using ImageJ software.

[6] = Pharmacokinetic study in rats; assay type: in vivo, SD rats
Method: The pharmacokinetic properties of LL6 were investigated in SD rats (n = 3). The left femoral artery and vein were catheterized with polyethylene tube (Intramedic^TM PE-50; Becton-Dickinson Diagnostics, MD, USA) under Zoletil (Virbac, Carros, France) anesthesia (50 mg/kg, intramuscular injection). LL6 was dissolved in DMSO/PEG 400/normal saline mixture (35:35:30, v/v/v) and single dose solution (1 mg/kg) was administered to rat intravenously. Approximately 150 µL of blood samples were collected via femoral artery at predetermined time (1, 3, 5, 10, 15, 30, 60, 120 and 180 min) and equivalent volume of normal saline solution with 20 U/mL of heparin was replenished to prevent blood coagulation. After centrifugation of the sample at 16,000 × g for 5 min, 50 µL aliquot of plasma samples were stored at -20 °C until HPLC-MS/MS analysis. The Pharmacokinetic parameters, including terminal half-life (T½), area under the plasma concentration-time curve from time zero to time last (AUClast), area under the plasma concentration-time curve from time zero to time infinity (AUCinf), volume of distribution at steady-state (Vss) and mean residence time (MRT) were calculated using non-compartmental analysis (WinNonlin, version 3.1, NCA 201; Pharsight, Mountain View, CA, USA).

[7] = system: H1299/PmR cells; test: MTT assay, viability of pemetrexed-resistant H1299/PmR cells; assay type: cell-based; settings: Homo sapiens, NCI-H1299, 72 h, three days, read-out: IC50 against the viability
Source text: as §2, §3

[8] = system: H1944 cells; test: MTT assay, viability of H1944 cells; assay type: cell-based; settings: Homo sapiens, NCI-H1944, 72 h, three days, read-out: IC50 against the viability
Method: as §1

[9] = system: H1299/CsR cells; test: MTT assay, viability of cisplatin-resistant H1299/CsR cells; assay type: cell-based; settings: Homo sapiens, NCI-H1299, 72 h, three days, read-out: IC50 against the viability
Source text: as §2, §3

[10] = system: Wi38 cells; test: MTT assay, viability of Wi38 human lung fibroblasts; assay type: cell-based; settings: WI-38, 72 h; Wi38 human lung fibroblasts, MTT assay, three days; read-out: IC50 against the viability
Method: as §1

[11] = as above; assay type: cell-based; settings: human, Wi38 lung fibroblasts; Wi38, 10 μM; read-out: percentage of cell viability
Method: as §1

[12] = system: PC9/ER cells; test: MTT assay, viability of erlotinib-resistant PC9/ER cells; assay type: cell-based; settings: Homo sapiens, PC-9/ER, 48 h, two days, 5% FBS, read-out: IC50 against the viability
Source text: as §2, §3

[13] = system: HCC15 cells; test: MTT assay, viability of HCC15 cells; assay type: cell-based; settings: Homo sapiens, 72 h, three days, read-out: IC50 against the viability
Method: as §1

[14] = SD, rat, plasma, rats, intravenous, 1 mg/kg

In the case of `Nc1ncnc2c1c(-c1ccc(Cl)cc1)nn2CCn1cc(COc2ccc(Nc3nccc(Nc4cnc5ccccc5c4)n3)cc2)nn1` [LL6], the “cytotoxicity in normal cells compared with the LDB combination” value [1] is reported as “markedly less cytotoxicity”, the glucose clearance [2] is reported as “minimal difference” and the IC50 [3] is reported as 3.43 µM. For the same compound, the IC50 [4] was 3.64 µM, the “activation (phosphorylation) of Src” value [5] was “efficiently suppressed” and the C0 ([6]; SD, rat, plasma, 1 mg/kg, rats, intravenous, read-out: theoretical initial plasma concentration) was 33.3 µM. It also gave an AUC(0-inf) [6, 14] of 852 ng·h/mL, an AUC(0-t) [6, 14] of 850 ng·h/mL and an MRT [6, 14] of 20.3 min. It also gave a clearance [6, 14] of 19.3 ± 1.2 mL/min/kg, a half-life [6, 14] of 29.1 ± 10 min and a C0 ([6]; SD, rat, plasma, rats, intravenous, 1 mg/kg, read-out: C0 (theoretical initial plasma concentration)) of 22700 ng/mL. The Vd ([6]; SD, rat, plasma, rats, intravenous, 1 mg/kg, read-out: Vss) was 0.392 ± 0.186 L/kg, the elimination in plasma ([6]; rats, intravenous) was “rapid” and the oral bioavailability ([6]; suggested by the pharmacokinetic study) was “poor”. For the same compound, the IC50 [7] was 1620 nM, the IC50 [8] was 1020 nM and the IC50 [9] was 1070 nM. It also gave an IC50 [10] of over 10 µM, a viability at 3 days, 10 µM [11] of over 60% and an IC50 [12] of 8.61 µM. For the same compound, the IC50 [13] was 3.73 µM.
